# From US20190351003A1, “METHODS FOR INHIBITING NONALCOHOLIC STEATOHEPATITIS, NONALCOHOLIC FATTY LIVER DISEASE, AND/OR DE NOVO LIPOGENESIS” (The Regents of the University of California, priority 2017, published 2019)
# T1: Flag-tagged SREBP2, Q12772
# T1 chain: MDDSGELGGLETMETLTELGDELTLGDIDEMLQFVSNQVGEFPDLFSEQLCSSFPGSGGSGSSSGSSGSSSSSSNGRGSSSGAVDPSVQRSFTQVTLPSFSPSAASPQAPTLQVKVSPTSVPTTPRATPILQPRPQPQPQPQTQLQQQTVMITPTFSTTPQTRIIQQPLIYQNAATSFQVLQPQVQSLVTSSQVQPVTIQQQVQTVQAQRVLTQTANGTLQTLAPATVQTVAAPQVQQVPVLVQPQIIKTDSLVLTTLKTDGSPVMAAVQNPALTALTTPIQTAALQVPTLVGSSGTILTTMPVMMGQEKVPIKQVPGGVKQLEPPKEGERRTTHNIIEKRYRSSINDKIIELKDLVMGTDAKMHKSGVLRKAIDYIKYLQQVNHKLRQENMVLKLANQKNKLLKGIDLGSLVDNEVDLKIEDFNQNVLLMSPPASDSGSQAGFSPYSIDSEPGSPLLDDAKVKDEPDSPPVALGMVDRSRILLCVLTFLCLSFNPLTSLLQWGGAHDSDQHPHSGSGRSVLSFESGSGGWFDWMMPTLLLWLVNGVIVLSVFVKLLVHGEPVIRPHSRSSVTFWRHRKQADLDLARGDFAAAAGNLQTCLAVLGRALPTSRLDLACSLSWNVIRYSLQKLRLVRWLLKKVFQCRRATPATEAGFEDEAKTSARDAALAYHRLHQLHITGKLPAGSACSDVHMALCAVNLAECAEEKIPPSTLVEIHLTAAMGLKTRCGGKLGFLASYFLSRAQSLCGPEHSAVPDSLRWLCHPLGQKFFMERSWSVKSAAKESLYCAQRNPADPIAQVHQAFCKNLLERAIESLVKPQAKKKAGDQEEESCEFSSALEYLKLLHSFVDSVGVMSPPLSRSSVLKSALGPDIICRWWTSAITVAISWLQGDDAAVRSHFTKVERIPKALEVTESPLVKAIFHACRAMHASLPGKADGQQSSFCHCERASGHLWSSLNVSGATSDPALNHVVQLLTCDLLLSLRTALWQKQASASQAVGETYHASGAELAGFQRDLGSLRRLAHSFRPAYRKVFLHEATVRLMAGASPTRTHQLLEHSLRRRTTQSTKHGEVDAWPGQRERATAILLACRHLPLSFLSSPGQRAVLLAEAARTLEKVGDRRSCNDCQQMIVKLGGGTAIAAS
# B1: Casp2-HA (mouse Casp2 with a C terminal HA epitope) (protein)
# chain: MAAPSGRSQSSLHRKGLMAADRRSRILAVCGMHPDHQETLKKNRVVLAKQLLLSELLEHLLEKDIITLEMRELIQAKGGSFSQNVELLNLLPKRGPQAFDAFCEALRETRQGHLEDLLLTTLSDIQHVLPPLSCDYDTSLPFSVCESCPPHKQLRLSTDATEHSLDNGDGPPCLLVKPCTPEFYQAHYQLAYRLQSQPRGLALVLSNVHFTGEKDLEFRSGGDVDHTTLVTLFKLLGYNVHVLHDQTAQEMQEKLQNFAQLPAHRVTDSCVVALLSHGVEGGIYGVDGKLLQLQEVFRLFDNANCPSLQNKPKMFFIQACRGDETDRGVDQQDGKNHTQSPGCEESDAGKEELMKMRLPTRSDMICGYACLKGNAAMRNTKRGSWYIEALTQVFSERACDMHVADMLVKVNALIKEREGYAPGTEFHRCKEMSEYCSTLCQQLYLFPGYPPT
# How the values were obtained:
# Casp2 = test: Tunicamycin (ER stress inducer) administration to NC-fed BL6 mice, liver Casp2 expression; format: in vivo, mouse; conditions: non-transgenic 3-month-old NC-fed BL6 mice; tunicamycin 1.25 mg/kg i.p.
# Procedure: FIGS. 12A-12I are pictorial and graphical diagrams showing elevated Casp2 expression in ER-stressed mice and human NASH. FIG. 12A the results from immunoblot (IB) analysis of whole cell lysates (WCL) from 5-week-old WT and MUP-uPA livers (left) and WCL of livers from 3-month-old WT mice that were i.p. injected with dextrose or tunicamycin (1.25 mg/kg). Results are mean±SEM (dextrose: n=4; tunicamycin: n=5). P: precursor, C: cleaved. […] Results are mean±SEM (WT: n=5; MUP: n=9). […] Casp4 and Casp12 were examined in liver lysates of 5-week-old mice. […] Staining intensity was quantitated using ImageJ as described in FIG. 1.
# (§1) RNAs were extracted from liver or fat tissue of indicated mice or human biopsies using TRIZOL reagent according to manufacturer's instruction. cDNAs were synthesized from total RNAs using Super Script VILO cDNA Synthesis Kit (Thermo Fisher Scientific, MA) according to the supplier's instructions. The cDNAs were quantified by real-time PCR analysis using SYBR Green Master Mix (Bio-Rad, CA). Primer sequences that were used for human biopsies are as follows:
# ER stress in MUP-uPA liver peaks in 5- to 6-week-old mice and then declines due to reduced uPA expression in newly regenerated hepatocytes (Nakagawa et al., 2014; Sandgren et al., 1991). […]
# MUP-uPA mice = conditions: HFD-fed MUP-uPA mice; cited from earlier work
# [1] = system: human caspases (including caspase-2); conditions: cited from earlier work
# HFD-fed MUP-uPA mice = test: Casp2 inhibitor treatment of HFD-fed MUP-uPA mice (NASH model); format: in vivo, mouse; conditions: for circulating TG / circulating cholesterol: serum
# Procedure: FIGS. 6A-6G are pictorial and graphical diagrams showing that Casp2 inhibition ameliorates NASH. […] After 6 weeks of HFD feeding, MUP-uPA mice were treated with Ac-VDVAD (10 μg/g) for 6 weeks while kept on HFD. […] FFPE sections from livers of inhibitor or vehicle treated mice were evaluated for macrovesicular fat, ballooning hepatocytes, MDB and p62 aggregates, macrophages, collagen fibers and lipid droplets. Magnification bars: 100 μm. Images were quantitated as above and results are shown on the right as averages±SEM (Vehicle: n=6; Ac-VDVAD: n=5). […] Mean±SEM. […] Adipocyte size and density were determined as above. ATM (adipose tissue macrophages) were visualized by F4/80 staining and quantified as above.
# Casp2^−/− mice were purchased from The Jackson Laboratories and crossed with either C57BL/6 or MUP-uPA mice (Sandgren et al., 1991; Weglarz et al., 2000) to generate Casp2^−/−/WT or Casp2^−/−/MUP-uPA mice, respectively. All mouse lines were either on a pure C57BL/6 genetic background or crossed into it for at least nine generations. Mice were fed with HFD (#S3282, Bio-serv) for a total of 12 weeks, starting at 8 weeks of age. Body weight increase and food consumption were monitored bi-weekly throughout the entire feeding period. Mice were starved for 3 hr before sacrifice and liver and adipose tissue were excised and weighed.
# as §1
# Liver and epidydimal fat were fixed in 4% paraformaldehyde for 48 hr and embedded in paraffin, sectioned, stained with hematoxylin and eosin (H&E) to evaluate gross morphology and ballooning degeneration and with Sirius Red to determine fibrosis. Prepared FFPE sections were subjected to incubation with antibodies specific to p62 and F4/80 to visualize formation of Mallory-Denk Bodies (MDB) and macrophage infiltration, respectively. For frozen-block preparation, liver tissue was embedded in Tissue-Tek OCT compound (Sakura Finetek), sectioned, and stained with Oil Red O to visualize TG accumulation. Stained areas were quantified using ImageJ software.
# Liver lipids were extracted using chloroform/methanol (2:1 v/v) and plasma and liver TG and cholesterol were determined using Triglyceride Colorimetric Assay Kit (Cayman Chemical Company, MI) and Cholesterol Quantification Kit (Sigma-Aldrich, MO) according to manufacturer's instructions.
# Morphological analysis of adipocytes was performed by using MRI adipocyte tools (Osman et al., 2013). Images were taken from FFPE epidydimal fat section by AXIO Imager A2 (Carl Zeiss, Germany) and subjected to MRI adipocyte software to obtain area of individual fat cell and number of adipocytes per HMF. Quantification and statistical significance were analyzed by Prism 7 software (GraphPad Prism, CA).
# To examine whether Casp2 inhibition is of therapeutic value, Ac-VDVAD-CHO (C23H37N5O10), a cell permeable, Casp2 inhibitor (Talanian et al., 1997) was administrated to HFD-fed MUP-uPA mice. HFD feeding was initiated at eight weeks of age, and six weeks later the mice were given the Casp2 inhibitor on alternate days by intraperitoneal (i.p.) injection (FIG. 6A). After a 6-week treatment regimen, the mice were sacrificed and their liver and adipose tissue were examined. […] Fibrosis was also attenuated. qRT-PCR analysis confirmed that expression of inflammatory cytokines and markers as well as fibrosis-related genes was reduced in response to Casp2 inhibition (FIG. 6C). […]
# [2] = molecular target: T1, Flag-tagged SREBP2, Q12772
# [3] = HFD-fed MUP-uPA mice, 10 μg/g i.p. every other day for 6 weeks
# [4] = HFD-fed MUP-uPA mice, 10 μg/g i.p. every other day for 6 weeks, liver
# [5] = HFD-fed MUP-uPA mice, 10 μg/g i.p. on alternate days for 6 weeks
# [6] = HFD-fed MUP-uPA mice, 10 μg/g i.p. on alternate days for 6 weeks, liver sections
# [7] = liver WCL, IB, HFD-fed MUP-uPA mice, 10 μg/g i.p. on alternate days for 6 weeks
molecule,measurement,setting,value
tunicamycin,Casp2 protein and RNA in liver,Casp2,induced
"O=C(O)CCCc1ccccc1 [PBA, phenyl butyric acid]",NASH development,MUP-uPA mice,effectively inhibited
same,activation of sterol response element binding proteins (SREBP),MUP-uPA mice,attenuate
same,lipid accumulation,MUP-uPA mice,inhibit
C[C@H](NC(=O)C(=O)Nc1ccccc1C(C)(C)C)C(=O)N[C@@H](CC(=O)O)C(=O)COc1c(F)c(F)cc(F)c1F [IDN-6556],activity against human caspases,[1]; broad-spectrum (pan-caspase) inhibitor,activity against all tested human caspases
same,inhibition of other classes of proteases or other enzymes or receptors other than caspases,[1]; selectivity,no inhibition
Ac-VDVAD-aldehyde,ATM (adipose tissue macrophage) accumulation / infiltration into epidydimal fat,HFD-fed MUP-uPA mice; [3],blocked
same,UCP1 expression in BAT,HFD-fed MUP-uPA mice; [3],enhanced
same,liver TG,HFD-fed MUP-uPA mice; [3],decreased
same,liver fibrosis,HFD-fed MUP-uPA mice; [3],attenuated
same,MDB (Mallory-Denk body) formation,HFD-fed MUP-uPA mice; [4],prevented
same,circulating TG,HFD-fed MUP-uPA mice; [3],decreased
same,circulating cholesterol,HFD-fed MUP-uPA mice; [3],decreased
same,blood insulin,HFD-fed MUP-uPA mice; [5],had no effect
same,body weight,HFD-fed MUP-uPA mice; [5],had no effect
same,hepatic steatosis,"HFD-fed MUP-uPA mice; HFD-fed MUP-uPA mice, 10 μg/g i.p. on alternate days for 6 weeks after 6 weeks of HFD, liver sections",prevented
same,macrophage recruitment,"HFD-fed MUP-uPA mice; HFD-fed MUP-uPA mice, 10 μg/g i.p. on alternate days for 6 weeks, liver",decreasing
same,ballooning degeneration,HFD-fed MUP-uPA mice; [6],prevented
same,p62 accumulation,HFD-fed MUP-uPA mice; [6],prevented
same,SREBP1/2 activation in liver,"HFD-fed MUP-uPA mice; IB of liver WCL and NE, HFD-fed MUP-uPA mice, 10 μg/g i.p. on alternate days for 6 weeks",attenuated
same,"energy expenditure, as suggested by AMPK activation in peripheral tissues, including liver and skeletal muscle","HFD-fed MUP-uPA mice; IB of liver and muscle extracts, HFD-fed MUP-uPA mice, 10 μg/g i.p. on alternate days for 6 weeks",increased
same,established NASH,"HFD-fed MUP-uPA mice; MUP-uPA mice, 10 μg/g for 6 weeks after 6 weeks of HFD feeding, kept on HFD",ameliorates
same,adipocyte enlargement,"HFD-fed MUP-uPA mice; epidydimal fat, HFD-fed MUP-uPA mice, 10 μg/g i.p. on alternate days for 6 weeks",blocked
same,INSIG1 or 2 expression,HFD-fed MUP-uPA mice; [7],had no effect
same,IRS2 expression,HFD-fed MUP-uPA mice; [7],had no effect
same,StARD4 expression,HFD-fed MUP-uPA mice; [7],reduced
same,mTORC1/p70S6K activation,HFD-fed MUP-uPA mice; [7],had no effect
same,expression of inflammatory cytokines and markers as well as fibrosis-related genes,"HFD-fed MUP-uPA mice; qRT-PCR, HFD-fed MUP-uPA mice, 10 μg/g i.p. on alternate days for 6 weeks",reduced
z-VDVAD-fmk,ATM (adipose tissue macrophage) accumulation / infiltration into epidydimal fat,HFD-fed MUP-uPA mice; [3],reduced
same,UCP1 expression in BAT,HFD-fed MUP-uPA mice; [3],elevating
same,inflammatory infiltration in livers,HFD-fed MUP-uPA mice; [3],decreased
same,liver TG,HFD-fed MUP-uPA mice; [3],significantly prevented
same,liver fibrosis,HFD-fed MUP-uPA mice; [3],dramatically reduced
same,MDB (Mallory-Denk body) formation,HFD-fed MUP-uPA mice; [4],decreased
same,circulating TG,HFD-fed MUP-uPA mice; [3],decreased
same,circulating cholesterol,HFD-fed MUP-uPA mice; [3],decreased
"C[C@H](CCC(=O)NCCS(=O)(=O)O)[C@H]1CC[C@H]2[C@@H]3[C@@H](O)C[C@@H]4C[C@H](O)CC[C@]4(C)[C@H]3CC[C@]12C [TUDCA, tauroursodeoxycholic acid]",NASH development,MUP-uPA mice,effectively inhibited
same,activation of sterol response element binding proteins (SREBP),MUP-uPA mice,attenuate
same,lipid accumulation,MUP-uPA mice,inhibit
B1,SREBP activation/cleavage (immunoblot),[2],"co-transfection of Casp2 with SREBP2 into either SCAP-deficient (293^ΔSCAP) or WT HEK293 cells did not result in SREBP1/2 activation/cleavage, unless an SP expression vector was also included"
